Data on 12 molecules can be found in patent US8809372B2, “Pyridine derivatives” (Endo Pharmaceuticals, Inc., priority 2011, dated 2014).

The assay has as its target T1, human CYP17 in H295R adrenocortical carcinoma cells (Homo sapiens, UniProt P05093).
T1 construct: H295R Adrenocortical carcinoma cells [NCI-H295A, ATCC Number CRL-2128, American Type Culture Collection; host or cells: H295R adrenocortical carcinoma cells
T1 sequence (P05093 1-508): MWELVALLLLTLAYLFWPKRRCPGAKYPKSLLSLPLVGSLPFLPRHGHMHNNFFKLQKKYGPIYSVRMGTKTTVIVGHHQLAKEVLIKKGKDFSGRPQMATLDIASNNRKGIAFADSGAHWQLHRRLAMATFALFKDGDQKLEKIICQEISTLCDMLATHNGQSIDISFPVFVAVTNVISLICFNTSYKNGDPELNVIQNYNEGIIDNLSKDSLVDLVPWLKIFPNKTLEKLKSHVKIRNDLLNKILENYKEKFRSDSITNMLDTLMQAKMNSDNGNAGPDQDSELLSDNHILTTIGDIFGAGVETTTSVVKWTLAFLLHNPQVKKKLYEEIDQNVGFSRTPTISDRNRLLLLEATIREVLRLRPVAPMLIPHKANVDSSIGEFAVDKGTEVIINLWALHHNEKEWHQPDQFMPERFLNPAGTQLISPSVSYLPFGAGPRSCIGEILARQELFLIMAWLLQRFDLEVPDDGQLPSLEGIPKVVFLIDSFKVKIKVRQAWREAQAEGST
The assay can be described thus: Cell-based human CYP17 inhibition assay, H295R cells. The conditions noted are these: 16 hours, read-out: CYP17 (human H295R adrenal cells). Summed up: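 H295R cells or LNCaP cells stably transfected with full-length human CYP17A1 (30,000/well) incubated 16 h at 37 °C with ³H-17α-hydroxypregnenolone and compound (top 10 μM, 3-fold dilutions, up to 10 concentrations). Medium chloroform-extracted and charcoal-treated; aqueous-phase radioactivity counted by scintillation.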

As for `COc1ccc(-c2ccc(C(C)(O)c3ccncc3)nc2)cc1` (single isomer, unassigned) [Example 3, 1-(5-(4-methoxyphenyl)-pyridin-2-yl)-1-(pyridin-4-yl)ethanol], the IC50 lay within 201 to 10000 nM.

On to `Cn1cc(-c2ccc(C(C)(O)c3ccncc3)s2)ccc1=O` (stereo not drawn) [Example 15, 5-(5-(1-Hydroxy-1-(pyridin-4-yl)ethyl)thiophen-2-yl)-1-methyl-pyridin-2(1H)-one], for which the IC50 is 50 to 200 nM.

As to `CC(O)(c1ccncc1)c1cnc(-c2ccc(F)cc2)s1` (racemic) [Example 7, 1-(2-(4-Fluorophenyl)thiazol-5-yl)-1-(pyridin-4-yl)ethanol], the IC50 was in the range of 50 to 200 nM.

As for `COc1ccc(-c2ccc(C(C)(O)c3ccncc3)nc2)cc1` (single isomer, unassigned) [Example 2, 1-(5-(4-methoxyphenyl)-pyridin-2-yl)-1-(pyridin-4-yl)ethanol], the IC50 lay within 50 to 200 nM.

For `CCC(O)(c1ccncc1)c1cnc(-c2ccc(F)cc2)s1` (stereo not drawn) [Example 4, 1-(2-(4-fluorophenyl)-thiazol-5-yl)-1-(pyridin-4-yl)propan-1-ol], the IC50 was 50 to 200 nM.

Consider `CC(O)(c1ccncc1)c1ncc(-c2ccc(F)cc2)s1` (stereo not drawn) [Example 14, 1-(5-(4-Fluorophenyl)thiazol-2-yl)-1-(pyridin-4-yl)ethanol], for which the IC50 was less than 50 nM.

In the case of `COc1ccc(-c2ccc(C(C)(O)c3ccncc3)nc2)cc1` (racemic) [Example 1, 1-(5-(4-Methoxyphenyl)pyridin-2-yl)-1-(pyridin-4-yl)ethanol], the IC50 lay in the range of 50 to 200 nM.

As for `CC(O)(c1ccncc1)c1cnc(-c2ccc(F)cc2)s1` (single isomer, unassigned) [Example 8, 1-(2-(4-fluorophenyl)thiazol-5-yl)-1-(pyridin-4-yl)ethanol], the IC50 lay within 201 to 10000 nM.

As for `CC(O)(c1ccncc1)c1nc(-c2ccc(F)cc2)no1` (single isomer, unassigned; (+)) [Example 36, (+)-1-(3-(4-fluoro-phenyl)-1,2,4-oxadiazol-5-yl)-1-(pyridin-4-yl)ethanol], the IC50 was less than 50 nM.

`Cn1cc(-c2ccc(C(C)(O)c3ccncc3)s2)ccc1=O` (single isomer, unassigned; (-)) [Example 17, (−)-5-(5-(1-hydroxy-1-(pyridin-4-yl)ethyl)thiophen-2-yl)-1-methylpyridin-2(1H)-one]: the IC50 is less than 50 nM.

As for `CC(O)(c1ccncc1)c1nc(-c2ccc(F)cc2)no1` (stereo not drawn) [Example 34, 1-(3-(4-Fluorophenyl)-1,2,4-oxadiazol-5-yl)-1-(pyridin-4-yl)ethanol], the IC50 is less than 50 nM.

On to `CC(O)(c1ccncc1)c1cnc(-c2ccc(F)cc2)s1` (single isomer, unassigned) [Example 9, 1-(2-(4-fluorophenyl)thiazol-5-yl)-1-(pyridin-4-yl)ethanol], for which the IC50 was less than 50 nM.
